Values after ≈ are worked out from the molar mass of the structure shown. Active and inactive are the calls of the source. The calls are words filed in the database; no cut-off is given here.
Columns and labels:
Pseudomonas aeruginosa [1] = experiment: Antibacterial activity against Pseudomonas aeruginosa ATCC 15442 assessed as bacterial growth inhibition measured after 18 hrs by CLSI protocol based two-fold serial microdilution method; format: functional, organism-based
[2] = system: Staphylococcus epidermidis; experiment: Antibacterial activity against methicillin-resistant Staphylococcus epidermidis isolate 610 assessed as bacterial growth inhibition measured after 18 hrs by CLSI protocol based two-fold serial microdilution method; format: functional; details: isolate 610, 18 h
Staphylococcus aureus [3] = experiment: Antibacterial activity against methicillin-resistant Staphylococcus aureus isolate 584 assessed as bacterial growth inhibition measured after 18 hrs by CLSI protocol based two-fold serial microdilution method; format: functional; details: isolate 584, 18 h
Staphylococcus aureus [4] = experiment: Antibacterial activity against methicillin-resistant Staphylococcus aureus isolate 770 assessed as bacterial growth inhibition measured after 18 hrs by CLSI protocol based two-fold serial microdilution method; format: functional; details: isolate 770, 18 h
Staphylococcus aureus [5] = experiment: Antibacterial activity against methicillin-resistant Staphylococcus aureus isolate 750 assessed as bacterial growth inhibition measured after 18 hrs by CLSI protocol based two-fold serial microdilution method; format: functional; details: isolate 750, 18 h
[6] = system: Staphylococcus epidermidis; experiment: Inhibition of biofilm formation in Staphylococcus epidermidis ATCC 12228 at 1 to 8 ug/ml measured after 24 hrs by crystal violet staining based assay; format: functional, organism-based
Escherichia coli [7] = experiment: Antibacterial activity against Escherichia coli NCTC 8196 assessed as bacterial growth inhibition measured after 18 hrs by CLSI protocol based two-fold serial microdilution method; format: functional, organism-based
[8] = Genotoxicity in rec negative Bacillus subtilis M45 assessed as diameter of inhibition zone at 256 ug measured after 24 hrs by rec-assay; format: toxicity; details: in vivo
Staphylococcus aureus [9] = experiment: Antibacterial activity against methicillin-resistant Staphylococcus aureus isolate 612 assessed as bacterial growth inhibition measured after 18 hrs by CLSI protocol based two-fold serial microdilution method; format: functional; details: isolate 612, 18 h
[10] = system: Staphylococcus epidermidis; experiment: Antibacterial activity against methicillin-resistant Staphylococcus epidermidis isolate 603 assessed as bacterial growth inhibition measured after 18 hrs by CLSI protocol based two-fold serial microdilution method; format: functional; details: isolate 603, 18 h
[11] = system: Staphylococcus epidermidis; experiment: Inhibition of biofilm formation in Staphylococcus epidermidis ATCC 35984 at 1 to 8 ug/ml measured after 24 hrs by crystal violet staining based assay; format: functional, organism-based
Staphylococcus aureus [12] = experiment: Antibacterial activity against Staphylococcus aureus ATCC 29213 assessed as bacterial growth inhibition measured after 18 hrs by CLSI protocol based two-fold serial microdilution method; format: functional
Staphylococcus aureus [13] = experiment: Antibacterial activity against methicillin-resistant Staphylococcus aureus isolate 583 assessed as bacterial growth inhibition measured after 18 hrs by CLSI protocol based two-fold serial microdilution method; format: functional; details: isolate 583, 18 h
Enterococcus hirae = experiment: Antibacterial activity against Enterococcus hirae ATCC 10541 assessed as bacterial growth inhibition measured after 18 hrs by CLSI protocol based two-fold serial microdilution method; format: functional
Staphylococcus aureus [14] = experiment: Antibacterial activity against methicillin-resistant Staphylococcus aureus isolate 621 assessed as bacterial growth inhibition measured after 18 hrs by CLSI protocol based two-fold serial microdilution method; format: functional; details: isolate 621, 18 h
[15] = system: Staphylococcus epidermidis; experiment: Antibacterial activity against methicillin-resistant Staphylococcus epidermidis isolate 609 assessed as bacterial growth inhibition measured after 18 hrs by CLSI protocol based two-fold serial microdilution method; format: functional; details: isolate 609, 18 h
Staphylococcus aureus [16] = experiment: Antibacterial activity against Staphylococcus aureus NCTC 4163 assessed as bacterial growth inhibition measured after 18 hrs by CLSI protocol based two-fold serial microdilution method; format: functional
Escherichia coli [17] = experiment: Antibacterial activity against Escherichia coli ATCC 25922 assessed as bacterial growth inhibition measured after 18 hrs by CLSI protocol based two-fold serial microdilution method; format: functional, organism-based
[18] = system: Staphylococcus epidermidis; experiment: Antibacterial activity against methicillin-resistant Staphylococcus epidermidis isolate 654 assessed as bacterial growth inhibition measured after 18 hrs by CLSI protocol based two-fold serial microdilution method; format: functional; details: isolate 654, 18 h
[19] = system: Staphylococcus epidermidis; experiment: Antibacterial activity against Staphylococcus epidermidis ATCC 35984 assessed as bacterial growth inhibition measured after 18 hrs by CLSI protocol based two-fold serial microdilution method; format: functional
Staphylococcus aureus [20] = experiment: Antibacterial activity against Staphylococcus aureus ATCC 6358 assessed as bacterial growth inhibition measured after 18 hrs by CLSI protocol based two-fold serial microdilution method; format: functional
Staphylococcus aureus [21] = experiment: Antibacterial activity against methicillin-resistant Staphylococcus aureus isolate 620 assessed as bacterial growth inhibition measured after 18 hrs by CLSI protocol based two-fold serial microdilution method; format: functional; details: isolate 620, 18 h
[22] = Genotoxicity in rec-positive Bacillus subtilis H17 assessed as diameter of inhibition zone at 256 ug measured after 24 hrs by rec-assay; format: toxicity; details: in vivo
Staphylococcus aureus [23] = experiment: Antibacterial activity against Staphylococcus aureus ATCC 25923 assessed as bacterial growth inhibition measured after 18 hrs by CLSI protocol based two-fold serial microdilution method; format: functional
[24] = system: Staphylococcus epidermidis; experiment: Antibacterial activity against methicillin-resistant Staphylococcus epidermidis isolate 660 assessed as bacterial growth inhibition measured after 18 hrs by CLSI protocol based two-fold serial microdilution method; format: functional; details: isolate 660, 18 h
[25] = system: Staphylococcus epidermidis; experiment: Antibacterial activity against Staphylococcus epidermidis ATCC 12228 assessed as bacterial growth inhibition measured after 18 hrs by CLSI protocol based two-fold serial microdilution method; format: functional
Micrococcus luteus = experiment: Antibacterial activity against Micrococcus luteus ATCC 9341 assessed as bacterial growth inhibition measured after 18 hrs by CLSI protocol based two-fold serial microdilution method; format: functional
Pseudomonas aeruginosa [26] = experiment: Antibacterial activity against Pseudomonas aeruginosa ATCC 27853 assessed as bacterial growth inhibition measured after 18 hrs by CLSI protocol based two-fold serial microdilution method; format: functional, organism-based
[27] = system: Staphylococcus epidermidis; experiment: Antibacterial activity against methicillin-resistant Staphylococcus epidermidis isolate 574 assessed as bacterial growth inhibition measured after 18 hrs by CLSI protocol based two-fold serial microdilution method; format: functional; details: isolate 574, 18 h
[28] = system: Staphylococcus epidermidis; experiment: Antibacterial activity against methicillin-resistant Staphylococcus epidermidis isolate 602 assessed as bacterial growth inhibition measured after 18 hrs by CLSI protocol based two-fold serial microdilution method; format: functional; details: isolate 602, 18 h

SMILES	Activity (Pseudomonas aeruginosa [1])	MIC [2]	MIC (Staphylococcus aureus [3])	MIC (Staphylococcus aureus [4])	MIC (Staphylococcus aureus [5])	inhibition [6]	Activity (Escherichia coli [7])	diameter of the inhibition zone (DIZ) [8]	MIC (Staphylococcus aureus [9])	MIC [10]	inhibition [11]	MIC (Staphylococcus aureus [13])	MIC (Staphylococcus aureus [14])	MIC [15]	Activity (Escherichia coli [17])	MIC [18]	MIC (Staphylococcus aureus [21])	diameter of the inhibition zone (DIZ) [22]	MIC [24]	Activity (Pseudomonas aeruginosa [26])	other results
CC[C@@H](C(=O)[C@@H](C)[C@@H](O)[C@H](C)[C@@H]1O[C@@H]([C@@H](CC)C(=O)ONC(=O)c2ccccc2)CC[C@@H]1C)[C@H]1O[C@]2(C=CC(=O)[C@]3(CC[C@@](C)([C@H]4CC[C@](O)(CC)[C@H](C)O4)O3)O2)[C@H](C)C[C@@H]1C	inactive	18.4 µM (≈ 16 µg/mL)	36.9 µM (≈ 32 µg/mL)	73.7 µM (≈ 64 µg/mL)	18.4 µM (≈ 16 µg/mL)	Active	inactive	23 mm	18.4 µM (≈ 16 µg/mL)	4.61 µM (≈ 4 µg/mL)	Active	36.9 µM (≈ 32 µg/mL)	4.61 µM (≈ 4 µg/mL)	9.22 µM (≈ 8 µg/mL)	inactive	73.7 µM (≈ 64 µg/mL)	18.4 µM (≈ 16 µg/mL)	20 mm	73.7 µM (≈ 64 µg/mL)	inactive	Activity (Staphylococcus aureus [12]): Active; Activity (Enterococcus hirae): Active; Activity (Staphylococcus aureus [16]): Active; Activity [19]: Active; Activity (Staphylococcus aureus [20]): Active; Activity (Staphylococcus aureus [23]): Active; Activity [25]: Active; Activity (Micrococcus luteus): Active; MIC [27]: 2.3 µM (≈ 2 µg/mL); MIC [28]: 4.61 µM (≈ 4 µg/mL)
CC[C@@H](C(=O)[C@@H](C)[C@@H](O)[C@H](C)[C@@H]1O[C@@H]([C@@H](CC)C(=O)ONC(=O)c2ccccc2O)CC[C@@H]1C)[C@H]1O[C@]2(C=C[C@@H](O)[C@]3(CC[C@@](C)([C@H]4CC[C@](O)(CC)[C@H](C)O4)O3)O2)[C@H](C)C[C@@H]1C	inactive	2.26 µM (≈ 2 µg/mL)	4.51 µM (≈ 4 µg/mL)	4.51 µM (≈ 4 µg/mL)	2.26 µM (≈ 2 µg/mL)	Active	inactive	30 mm	2.26 µM (≈ 2 µg/mL)	2.26 µM (≈ 2 µg/mL)	Active	2.26 µM (≈ 2 µg/mL)	2.26 µM (≈ 2 µg/mL)	2.26 µM (≈ 2 µg/mL)	inactive	4.51 µM (≈ 4 µg/mL)	2.26 µM (≈ 2 µg/mL)	24 mm	4.51 µM (≈ 4 µg/mL)	inactive	MIC (Staphylococcus aureus [12]; ATCC 29213, 18 h): 1 to 16 µg/mL (≈ 1.13 to 18.1 µM); MIC (Enterococcus hirae; ATCC 10541, 18 h): 1 to 16 µg/mL (≈ 1.13 to 18.1 µM); MIC (Staphylococcus aureus [16]; NCTC 4163, 18 h): 1 to 16 µg/mL (≈ 1.13 to 18.1 µM); MIC ([19]; ATCC 35984, 18 h): 1 to 16 µg/mL (≈ 1.13 to 18.1 µM); MIC (Staphylococcus aureus [20]; ATCC 6358, 18 h): 1 to 16 µg/mL (≈ 1.13 to 18.1 µM); MIC (Staphylococcus aureus [23]; ATCC 25923, 18 h): 1 to 16 µg/mL (≈ 1.13 to 18.1 µM); MIC ([25]; ATCC 12228, 18 h): 1 to 16 µg/mL (≈ 1.13 to 18.1 µM); MIC (Micrococcus luteus; ATCC 9341, 18 h): 1 to 16 µg/mL (≈ 1.13 to 18.1 µM); MIC [27]: 1.13 µM (≈ 1 µg/mL); MIC [28]: 2.26 µM (≈ 2 µg/mL)

Source: ChEMBL document CHEMBL4627327, “Antibacterial activity of singly and doubly modified salinomycin derivatives” (Bioorg Med Chem Lett, 2020)
